The test system of this test is HRE/Luc/HEK293 cells. In words: HRE (Hypoxia Response Element) luciferase assay. Particulars: Homo sapiens. It counts as cell-based, human. An outline of the steps: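 HRE-luciferase HEK293 cells in MEM/10% FBS pretreated with compound 6 h, then held under hypoxia (0.1% O2) 18 h; luminescence read after lysis. Scored as fold increase over vehicle, with twofold threshold at 100, 10 or 1 µM.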

Setting [1] is: HEK293, fold increase of HRE expression, hypoxic conditions (O2 0.1%) 18 hours, Table 2, read-out: HRE-increasing 10uM.
The mark [2] stands for this setting: HEK293, fold increase of HRE expression, hypoxic conditions (O2 0.1%) 18 hours, Table 2, read-out: HRE-increasing 100uM.
[3] abbreviates: HEK293, 18 h, Table 2 (Examples 75-109, 114), read-out: HRE-inceasing 10uM.
[4] abbreviates: HEK293, 18 h, Table 2 (Examples 75-109, 114), read-out: HRE-inceasing 100uM.
Setting [5] is: HEK293, 18 h, Table 2 (Examples 37-74, 52), read-out: HKt-increasing 10uM.
The mark [6] stands for this setting: HEK293, 18 h, Table 2 (Examples 37-74, 52), read-out: HKt-increasing 100uM.

This is an account of results in patent EP4810508A1, “ARABINOSE DERIVATIVE COMPOUND, AND COMPOSITION COMPRISING SAME FOR PREVENTING OR TREATING DEGENERATIVE BRAIN DISEASES” (Digmbio. Inc., priority 2023, dated 2025).

Read-outs that look alike come from different tables or passages of the source.

Take `O[C@@H]1[C@@H](O)[C@@H](Oc2ccc(Cc3cc(C(F)(F)F)cc(C(F)(F)F)c3)cc2)OC[C@@H]1O` [Example 16, (2R,3R,4S,5S)-2-(4-(3,5-bis(trifluoromethyl)benzyl)phenoxy) tetrahydro-2H-pyran-3,4,5-triol]: the fold induction at 10 µM under setting [1] was 1. For the same compound, the fold induction at 100 µM under setting [2] is under 1. In the case of `Cc1ccc2oc(-c3ccc(O[C@H]4OC[C@H](O)[C@H](O)[C@H]4O)c(F)c3)nc2c1` [Example 105, (2R,3R,4S,5S)-2-(2-fluoro-4-(5-methylbenzo[d]oxazol-2-yl)phenoxy)tetrahydro-2H-pyran 3,4,5-triol], the fold induction at 10 µM under setting [3] was determined as 2.5. Besides, the fold induction at 100 µM under setting [4] is 3.7. The corresponding values for `Cc1ccc2oc(-c3ccc(O[C@H]4OC[C@H](O)[C@H](O)[C@H]4O)c(Cl)c3)nc2c1` [Example 99, (2R,3R,4S,5S)-2-(2-chloro-4-(5-methylbenzo [d]oxazol-2-yl)phenoxy)tetrahydro-2H-pyran-3,4,5-triol] are 2.8 and 3.6. For `O[C@@H]1[C@@H](O)[C@@H](Oc2ccc(Cc3ccc4ccccc4c3)cc2)OC[C@@H]1O` [Example 19, (2R,3R,4S,5S)-2-(4-(naphthalen-2-ylmethyl)phenoxy) tetrahydro-2H-pyran-3,4,5-triol], the fold induction at 10 µM under setting [1] turned out to be 1.3. In addition, the fold induction at 100 µM under setting [2] is 1.8. On to `N#Cc1ccc(C(=O)c2ccc(O[C@@H]3OC[C@H](O)[C@H](O)[C@H]3O)cc2)cc1` [Example 72, 4-(4-(((2S,3R,4S,5S)-3,4,5-trihydroxytetrahydro-2H-pyran-2-yl)oxy)benzoyl)benzonitrile], for which, under setting [5], the fold induction at 10 µM was 1. Besides, the fold induction at 100 µM under setting [6] worked out at 1.3. The corresponding values for `COc1ccc(Cc2ccc(O[C@H]3OC[C@H](O)[C@H](O)[C@H]3O)c(Cl)c2)cc1` [Example 51, (2R,3R,4S,5S)-2-(2-chloro-4-(4-methoxybenzyl)phenoxy)tetrahydro-2H-pyran-3,4,5-triol] are 1.3 and 2.9. On the same counts, the results for `COc1ccc(C(=O)c2ccc(O[C@H]3OC[C@H](O)[C@H](O)[C@H]3O)cc2)cc1` [Example 71, (4-methoxyphenyl)(4-(((2R,3R,4S,5S)-3,4,5-trihydroxytetrahydro-2H-pyran-2-yl)oxy)phenyl)methanone] are 1.3 and 2. As to `O[C@@H]1[C@@H](O)[C@H](Oc2ccc(CN3CCOCC3)cc2)OC[C@@H]1O` [Example 76, (2S,3R,4S,5S)-2-(4-(morpholinomethyl)phenoxy)tetrahydro-2H-pyran-3,4,5-triol], under setting [3], the fold induction at 10 µM is under 1. Moreover, the fold induction at 100 µM under setting [4] was determined as 1.

For `O[C@@H]1[C@@H](O)[C@H](Oc2ccc(Cc3cccnc3)cc2)OC[C@@H]1O` [Example 24, (2S,3R,4S,5S)-2-(4-(pyridin-3-ylmethyl)phenoxy)tetrahydro-2H-pyran-3,4,5-triol], under setting [1], the fold induction at 10 µM stood at 1.1. For the same compound, the fold induction at 100 µM under setting [2] was 1.1. Regarding `CC(C)c1ccc(Cc2ccc(S[C@@H]3OC[C@H](O)[C@H](O)[C@H]3O)cc2)cc1` [Example 28, (2S,3R,4S,5S)-2-((4-(4-isopropylbenzyl)phenyl)thio) tetrahydro-2H-pyran-3,4,5-triol], the fold induction at 10 µM under setting [1] amounted to 1.8. `CC(C)c1ccc(Oc2ccc(O[C@H]3O[C@H](CO)[C@H](O)[C@H](O)[C@H]3O)cc2)cc1` [Example 59, (2R,3R,4S,5R,6R)-2-(hydroxymethyl)-6-(4-(4-isopropylphenoxy)phenoxy)tetrahydro-2H-pyran-3,4,5-triol]: the fold induction at 10 µM under setting [5] stood at 1.8. The fold induction at 100 µM under setting [6] amounted to 2.8. For the compound `CC(C)c1ccc(Oc2ccc(O[C@H]3OC[C@@H](F)[C@H](O)[C@H]3O)cc2)cc1` [Example 64, (2R,3R,4R,5R)-5-fluoro-2-(4-(4-isopropylphenoxy)phenoxy)tetrahydro-2H-pyran-3,4-diol], the fold induction at 10 µM under setting [5] turned out to be 2.4. Besides, the fold induction at 100 µM under setting [6] amounted to 2.3.
